Data set [1] can be described thus: Dynamic vapor sorption/desorption (DVS), hygroscopicity. As to conditions: for Hygroscopicity: grade in words, from DVS; for Water uptake (5-95% RH) %: total. It counts as physicochemical. The method, then: The active pharmaceutical ingredient (API), 4-bromo-2,5-dimethoxyphenethylamine hydrochloride, is characterized to evaluate its physical properties. The evaluation is performed by X-ray powder diffraction (XRPD), polarized light microscopy (PLM), differential scanning calorimetry (DSC), thermogravimetry (TG), dynamic vapor sorption/desorption (DVS), and/or solubility testing in organic solvents, water, and mixed solvent systems. XRPD data are used to assess crystallinity. PLM data are used to evaluate crystallinity and particle size/morphology. DSC data are used to evaluate melting point, thermal stability, and crystalline form conversion. TG data are used to evaluate if the API is a solvate or hydrate, and to evaluate thermal stability. DVS data are used to evaluate hygroscopicity of the API and if hydrates can be formed at high relative humidity.
The form characterized in FIGS. 1 and 2 is designated as Form A herein. […] A sharp endotherm at 238° C. in the DSC thermogram is attributed to melting.

The nature of data set [2]: Dynamic vapor sorption (DVS) with XRPD of the post-DVS sample. As to conditions: for hygroscopicity based on DVS data / moisture gain by DVS / moisture gain by DVS, equivalent moles of water: 25° C.; for hygroscopicity based on DVS data: 5 to 95% RH; for moisture gain by DVS / moisture gain by DVS, equivalent moles of water: adsorption 5 to 95% RH; for post-DVS XRPD result: XRPD of the post-DVS sample; for DVS desorption weight loss, 95-5% RH: desorption 95-5% RH; for behaviour on desorption / form change by XRPD of post-DVS sample: desorption 95 to 5% RH; for DVS sorption weight gain, 5-95% RH: sorption 5-95% RH; for DVS desorption weight loss, 85-5% RH: desorption 85-5% RH; for DVS desorption weight loss, 95-85% RH: desorption 95-85% RH; for DVS sorption weight gain, 5-85% RH: sorption 5-85% RH; for DVS sorption weight gain, 85-95% RH: sorption 85-95% RH. It counts as physicochemical. The method, then: Dynamic Vapor Sorption (DVS) analysis was carried out using a TA Instruments Q5000 Dynamic Vapor Sorption analyzer. The instrument was calibrated with standard weights and a sodium bromide standard for humidity. Approximately 10-25 mg of sample was loaded into a metal-coated quartz pan for analysis. The sample was analyzed at 25° C. with a maximum equilibration time of one hour in 10% relative humidity (RH) steps from 5 to 95% RH (adsorption cycle) and from 95 to 5% RH (desorption cycle). The movement from one step to the next occurred either after satisfying the equilibrium criterion of 0.01% weight change or, if the equilibrium criterion was not met, after one hour. The percent weight change values were calculated using Microsoft Excel.
(§1) The DVS analysis was carried out using a TA Instruments Q5000 Dynamic Vapor Sorption analyzer. 13.5 mg of sample was loaded into a metal-coated quartz pan for analysis. After equilibration to 5% relative humidity (RH), the sample was analyzed at 25° C. in 10% RH steps from 5 to 95% RH (adsorption cycle) and from 95 to 5% RH (desorption cycle). The movement from one step to the next occurred either after satisfying the equilibrium criterion of 0.01% weight change in 5 minutes or, if the equilibrium criterion was not met, after 90 minutes. The percent weight change values are calculated using Microsoft Excel®.
as §1, with “DVS analyses were” for “DVS analysis was”, “analyzer. Approximately 7-11” for “analyzer. 13.5”, “equilibration at” for “equilibration to”, “values were” for “values are”
as §1, with “analyzer. Approximately 2” for “analyzer. 13.5”, “equilibration at” for “equilibration to”, “values were” for “values are”

Data set [3] is described as follows: Deliquescence at 75% RH at ambient temperature. It counts as physicochemical.
For data set [4] the following is noted: Slurry.
Description: The sample was then centrifuged, while still warm, and the mother liquor was decanted. The isolated solids were air-dried and analyzed by XRPD.
The mark [5] stands for this setting: several days at 75% RH at ambient temperature.

“Also recorded” adds a separate entry of the source. Read-outs that look alike come from different tables or passages of the source.

As for `COc1cc(CCN)c(OC)cc1Br.O=S(=O)(O)c1ccccc1` [Besylate (Form 1), 2C-B besylate], the “Hygroscopicity: weight gain” value in data set [1] (5-95% RH) was 5-95% RH: 0.7%. Besides, the Hygroscopicity result in data set [1] is “Slightly”. Also, in data set [2], the “hygroscopicity based on DVS data” value was “slightly hygroscopic”; the “moisture gain by DVS” value amounted to 0.7%; the “moisture gain by DVS, equivalent moles of water” value (“moisture gain by DVS … of water” below) is 0.2 mol; the “post-DVS XRPD result” value is reported as “Consistent with Besylate (Form 1)”. Further, in data set [2], the “DVS desorption weight loss, 95-5% RH” value is recorded as 95-5% RH: 0.7% loss; the “behaviour on desorption / form change by XRPD of post-DVS sample” value (“behaviour on desorption / form change” for short) was “does not undergo form conversion”; the “DVS sorption weight gain, 5-95% RH” value was 5-95% RH: 0.7% gain. Moreover, in data set [3] (at 75% RH), the deliquescence entry is given as “Did not deliquesce”. In addition, the deliquescence entry in data set [3] (setting [5]) is “not observed”.
For the compound `COc1cc(CCN)c(OC)cc1Br.CS(=O)(=O)O` [Mesylate, 2C-B mesylate], the “Hygroscopicity: weight gain” value in data set [1] (<85% RH) is given as “RH: 2.7%”. The “Hygroscopicity: weight gain” value in data set [1] (>85% RH) was “RH: 4.5% gain”. For the same compound, in data set [1], the Hygroscopicity result was “Hygroscopic; <85%”. Besides, in data set [2], the “hygroscopicity based on DVS data” value is “hygroscopic”; the “moisture gain by DVS” value turned out to be 7.2%; the “moisture gain by DVS … of water” value was “approximately 1.5 moles”; the “post-DVS XRPD result” value is “Consistent with Mesylate”. Further, in data set [2], the “DVS desorption weight loss, 85-5% RH” value was 85-5% RH: 3.0% loss; the “DVS desorption weight loss, 95-85% RH” value is 95-85% RH: 4.4% loss; the “behaviour on desorption / form change” value is “form change is not apparent by XRPD”; the “DVS desorption total loss” value is “Total loss: 7.4%”. In data set [2], the “DVS sorption weight gain, 5-85% RH” value is recorded as 5-85% RH: 2.7% gain; the “DVS sorption weight gain, 85-95% RH” value was 85-95% RH: 4.5% gain; the “DVS sorption total gain” value is given as “Total gain: 7.2%”. The deliquescence result in data set [3] (at 75% RH) was “Did not deliquesce”. Further, the deliquescence entry in data set [3] (setting [5]) is recorded as “not observed”.
Regarding `COc1cc(CCN)c(OC)cc1Br.O=C(O)CC(O)(CC(=O)O)C(=O)O` [Citrate (Form 2), 2C-B Citrate], the “Hygroscopicity: weight gain” value in data set [1] (5-95% RH) is listed as 5-95% RH: 0.5%. Further, the Hygroscopicity entry in data set [1] was “Slightly”. For the same compound, in data set [2], the “hygroscopicity based on DVS data” value was “slightly hygroscopic”; the “moisture gain by DVS” value turned out to be 0.5%; the “moisture gain by DVS … of water” value came to 0.1 mol; the “post-DVS XRPD result” value is “Consistent with Citrate (Form 2)”. Also, in data set [2], the “DVS desorption weight loss, 95-5% RH” value is given as 95-5% RH: 0.5% loss; the “behaviour on desorption / form change” value was “form change does not occur”; the “DVS sorption weight gain, 5-95% RH” value is listed as 5-95% RH: 0.5% gain. The deliquescence result in data set [3] (at 75% RH) is on record as “Did not deliquesce”. Further, the deliquescence entry in data set [3] (setting [5]) is reported as “not observed”.
Regarding `COc1cc(CCN)c(OC)cc1Br.O=C(O)c1cc(O)ccc1O` [Gentisate, 2C-B gentisate], in data set [1] (5-95% RH), the “Hygroscopicity: weight gain” value was 5-95% RH: 0.2% and the “Water uptake (5-95% RH) %” value is 0.20%. Further, the Hygroscopicity result in data set [1] was “Non-hygroscopic;”. Further, in data set [2], the “hygroscopicity based on DVS data” value was “non-hygroscopic”; the “moisture gain by DVS” value was 0.2%; the “moisture gain by DVS … of water” value was 0.05 mol; the “post-DVS XRPD result” value was “Crystalline, consistent”. For the same compound, in data set [2], the “DVS desorption weight loss, 95-5% RH” value was 95-5% RH: 0.2% loss; the “behaviour on desorption / form change” value was “form change does not occur”; the “DVS sorption weight gain, 5-95% RH” value is 5-95% RH: 0.2% gain. The deliquescence result in data set [3] (at 75% RH) is “Did not deliquesce”. For the same compound, the deliquescence result in data set [3] (setting [5]) is given as “not observed; also recorded: does not deliquesce”.
For `COc1cc(CCN)c(OC)cc1Br.O=C(O)C(O)C(O)C(=O)O` [2C-B tartrate, 4-bromo-2,5-dimethoxyphenethylamine (2C-B) tartrate], the “XRPD result after slurry” value in data set [4] (ACN, 50° C., 9 days) is on record as “Tartrate (Form 1)”; in data set [4] (DMF/acetone 50/50, RT), “Tartrate (Form 1)”; in data set [4] (EtOAc, 50° C., 9 days) it was “Tartrate (Form 1)”; in data set [4] (EtOAc/DMSO 71/29, RT) it was “Tartrate (Form 1) +”; in data set [4] (EtOH, 50° C., 9 days), “Tartrate (Form 1)”; in data set [4] (EtOH/H2O 50/50, aw = 0.89, RT), “Tartrate (Form 1)”. Also, the “XRPD result after slurry” value in data set [4] (EtOH/H2O 80/20, aw = 0.70, RT) is listed as “Tartrate (Form 1)”; in data set [4] (EtOH/H2O 90/10, aw = 0.49, RT), “Tartrate (Form 1)”; in data set [4] (IPA, 50° C., 9 days), “Tartrate (Form 1)”; in data set [4] (IPA/H2O 70/30, aw = 0.94, RT), “Tartrate (Form 1)”; in data set [4] (MEK, 50° C., 9 days), “Tartrate (Form 1)”; in data set [4] (MeOH, RT), “Tartrate (Form 1)”. Moreover, the “XRPD result after slurry” value is listed as “Tartrate (Form 1)” in data set [4] (MeOH/H2O 95/5, aw = 0.16, RT); “Tartrate (Form 1)” in data set [4] (THF/H2O 50/50, aw = 1.00, 5° C.); “Tartrate (Form 1)” in data set [4] (acetone/H2O 50/50, aw = 0.91, 5° C.).
In the case of `COc1cc(CCN)c(OC)cc1Br.O=S(=O)(O)O` [Sulfate, 2C-B sulfate], in data set [1] (5-85% RH part of sorption), the “Water uptake (5-85% RH) %” value was 0.8%. Also, the “Water uptake (85-95% RH) %” value in data set [1] (85-95% RH part of sorption) is given as “(5-85), 1.4 (85-95) %”. Further, in data set [1] (<85% RH), the “Hygroscopicity: weight gain” value is “RH: 0.8%”. Further, in data set [1] (>85% RH), the “Hygroscopicity: weight gain” value was “RH: 1.4%”. The Hygroscopicity result in data set [1] was “Slightly”. The “Water uptake (5-95% RH) %” value in data set [1] (5-95% RH) was determined as 2.2%. Further, in data set [2], the “hygroscopicity based on DVS data” value is “slightly hygroscopic”; the “moisture gain by DVS” value came out at 2.2%; the “moisture gain by DVS … of water” value was “approximately 0.5 moles”; the “post-DVS XRPD result” value is listed as “Consistent with Sulfate”. In addition, in data set [2], the “DVS desorption weight loss, 85-5% RH” value is listed as 85-5% RH: 0.8% loss; the “DVS desorption weight loss, 95-85% RH” value is reported as 95-85% RH: 1.3% loss; the “behaviour on desorption / form change” value was “form change does not occur”; the “DVS desorption total loss” value is recorded as “Total loss: 2.1%”. In data set [2], the “DVS sorption weight gain, 5-85% RH” value is reported as 5-85% RH: 0.8% gain; the “DVS sorption weight gain, 85-95% RH” value is 85-95% RH: 1.4% gain; the “DVS sorption total gain” value was “Total gain: 2.2%”. The deliquescence entry in data set [3] (at 75% RH) is given as “Did not deliquesce”. Besides, the deliquescence entry in data set [3] (setting [5]) was “not observed”.
Consider `COc1cc(CCN)c(OC)cc1Br.O=C(O)C(O)C(O)C(=O)O` [Tartrate (Form 1), 4-bromo-2,5-dimethoxyphenethylamine (2C-B) tartrate], for which, in data set [1] (5-95% RH), the “Hygroscopicity: weight gain” value is 5-95% RH: 0.1% and the “Water uptake (5-95% RH) %” value was 0.1%. In addition, in data set [1], the Hygroscopicity result is recorded as “Non-hygroscopic;”. In addition, in data set [2], the “hygroscopicity based on DVS data” value was “non-hygroscopic”; the “moisture gain by DVS” value was 0.1%; the “post-DVS XRPD result” value is listed as “Crystalline, consistent”; the “DVS desorption weight loss, 95-5% RH” value is recorded as 95-5% RH: 0.1% loss. Besides, in data set [2], the “behaviour on desorption / form change” value is “Form change does not occur” and the “DVS sorption weight gain, 5-95% RH” value was 5-95% RH: 0.1% gain. Also, in data set [3] (at 75% RH), the deliquescence entry was “Did not deliquesce”. Also, the deliquescence entry in data set [3] (setting [5]) is reported as “not observed; also recorded: does not deliquesce”.

(Values after patent publication US20230150920A1, “SALTS AND SOLID FORMS OF 4-BROMO-2,5-DIMETHOXYPHENETHYLAMINE” (priority 2021, published 2023).)
